Where no end group is shown, it is not given here.
Columns and labels:
[1] = system: myelin reactive T cells in PBMCs; assay: EAA with positivity by Variance Evaluation Method or CPM Variance Method (clinical trials); type: cell-based, human; conditions: clinical trial population, RR-MS or CIS subjects
Text: The predetermined value may also be calculated using a Variance Evaluation Method as follows: • 1. EAAs may be run on a given patient population (minimum of 120 assays from 120 unique subjects) • 2. A “negative population” may be created by averaging all SI values<2.5 • 3. The Standard Deviation (SD) may be calculated for each peptide • 4. The following for each peptide may be then be calculated: • a. Average+1SD • b. Average+2SD • c. Average+3SD • 5. The following SIs may be considered above the predetermined value: • a. SI greater than or equal to the average+3SD • b. Any SI greater than or equal to 2.5
The predetermined value may also be evaluated using a Counts per Minute (CPM) Variance Method. This algorithm may set a comprehensive cutoff for all peptides within a given assay. It may be calculated as follows: • 1. EAAs may be run and the CPM for all control (media only, no antigen) wells averaged. • 2. The SD for CPM of the control wells may then be calculated. • 3. The following may then be calculated for the control wells: • a. Average+1SD • b. Average+2SD • c. Average+3SD • 4. Any peptide with an average CPM greater than or equal to the average+3SD of the control wells may be considered above the predetermined value.
Any peptide, either analyzed in an individual well or as averaged over wells run in triplicate, with an SI≧2.5, an SI≧average+3SD by the Variance Evaluation Method, or an SI≧average+3SD by the CPM variance method may be considered above the predetermined value, which may indicate a T cell(s) positive for reactivity to a peptide.
The peptides of Example 3 have been tested in 429 EAAs in clinical trials as follows. […] Pre-Vaccine EAAs have 158 positive out of 387 assays (40.8%), with Relapse Remitting MS patients (RRMS) showing 150 positive of 368 assays (40.8%), and Clinically Isolated Syndrome (CIS) patients showing 8 positive of 19 assays (42.1%).
Over the course of 6 months a study was conducted with 120 subjects meeting the criteria for the clinical trial.
The above mentioned population of subjects was evaluated by EAA using the Variance Evaluation Method and CPM Variance Method as described above, and deemed eligible for vaccine production. Of the 120 attempts to manufacture vaccine, there were 2 shipping failures (blood was not received within our stated criteria), 1 culture was lost to contamination and 5 samples arrived with low cell volume/yield. Of the remaining 112 subjects, vaccine was successfully generated in 89 subjects, with 22 still in production (98.9% of eligible samples, 92.5% of all samples completed). From this, a positive EAA was deemed predictive of the ability to manufacture a vaccine to therapeutic dose by methods disclosed herein.

myelin-reactive T cells = assay: Growth of myelin reactive T cell lines with low stimulation indices; type: cell-based, human
Text: Using the algorithms described above, statistically significant SIs as low as 1.3 have been observed and therefore should be able grow in response to antigen. To verify this ability, 5 cell lines across two patients are shown with an SI<2.0. The results are shown in Table 12 and FIG. 24, which indicate growth of these cell lines with only peptide antigen stimulation and common T cell growth factors.
PBMC for subject 1042 were run in the EAA, and […] were positive, including PLPm18 with an SI of 1.8, PLPm26 with an SI of 2.5 and PLPm28 with an SI of 2.5. […] PBMC for subject 1014 were run in the EAA, and 4 mixes were positive, including MBPm14 with an SI of 1.7, PLPm17 with an SI of 1.7, PLPm28 with an SI of 2.2 and MOGm6 with an SI of 1.9. […]
PBMCs were isolated via density gradient centrifugation from peripheral blood obtained through venipuncture into ACD-1 anticoagulant. PBMCs were plated at 2.5E+06 cells/well in 24 well plates. Antigen in the form of 16mer peptides identified in the EAA were added at a final concentration of 20 ug/ml. Interluekin-2 (IL-2) was added at a final concentration of 100 U/ml starting at 48 hours and IL-2 was added at the same concentration with each feeding or splitting of wells. Peptide restimulation in the presence of antigen presenting cells (APCs-autologous PBMCs irradiated at 3500 rad) was done at days 7, 14 and 21. Interleukin-15 (IL-15) was added at a final concentration of 5 ng/ml-20 ng/ml (lot specific) starting at day 14 and continued through the remainder of the culture period. Cells lines were all harvested by day 35 and had achieved expansions of 3.0-8.2 fold.

Substance	# of Subjects (frequency of identification) [1]	% of Subjects (frequency of identification) [1]	other results
PLPm4: mix of PLP 7 and PLP 8 (chain 1 CFFGVALFCGCGHEAL; chain 2 VALFCGCGHEALTGTE)	26	21.8%	–
PLPm13: mix of PLP 25 and PLP 26 (chain 1 VRQIFGDYKTTICGKG; chain 2 FGDYKTTICGKGLSAT)	3	2.5%	–
FAVLKLMGRGTKF [PLP67]	5	4.2%	–
PLPm6: mix of PLP 11 and PLP 12 (chain 1 TGTEKLIETYFSKNYQ; chain 2 KLIETYFSKNYQDYEY)	4	3.4%	–
PLPm24: mix of PLP 47 and PLP 48 (chain 1 QSIAFPSKTSASIGSL; chain 2 FPSKTSASIGSLCADA)	7	5.9%	–
MOGm21: mix of MOG 41 and MOG 42 (chain 1 IENLHRTFDPHFLRVP; chain 2 HRTFDPHFLRVPCWKI)	40	33.6%	–
MOGm22: mix of MOG 43 and MOG 44 (chain 1 DPHFLRVPCWKITLFV; chain 2 LRVPCWKITLFVIVPV)	2	1.7%	–
MOGm5: mix of MOG 9 and MOG 10 (chain 1 TGMEVGWYRPPFSRVV; chain 2 VGWYRPPFSRVVHLYR)	8	6.7%	–
PLPm25: mix of PLP 49 and PLP 50 (chain 1 TSASIGSLCADARMYG; chain 2 IGSLCADARMYGVLPW)	3	2.5%	–
PLPm32: mix of PLP 63 and PLP 64 (chain 1 ATLVSLLTFMIAATYN; chain 2 SLLTFMIAATYNFAVL)	12	10.1%	–
MOGm7: mix of MOG 13 and MOG 14 (chain 1 HLYRNGKDQDGDQAPE; chain 2 NGKDQDGDQAPEYRGR)	5	4.2%	–
MOGm3: mix of MOG 5 and MOG 6 (chain 1 GDEVELPCRISPGKNA; chain 2 ELPCRISPGKNATGME)	4	3.4%	–
PLPm18: mix of PLP 35 and PLP 36 (chain 1 RVCHCLGKWLGHPDKF; chain 2 CLGKWLGHPDKFVGIT)	10	8.4%	Fold Expansion (myelin-reactive T cells; subject 1042, Day 0): 1.0; Viable Cell Count, Count/well (myelin-reactive T cells; subject 1042, Day 0): 2.50E+06; Viable Cell Count, Total Cells (myelin-reactive T cells; subject 1042, Day 0): 3.00E+07; Fold Expansion (myelin-reactive T cells; subject 1042, Day 14): 0.4; Viable Cell Count, Count/well (myelin-reactive T cells; subject 1042, Day 14): 9.60E+05; Viable Cell Count, Total Cells (myelin-reactive T cells; subject 1042, Day 14): 1.15E+07; Fold Expansion (myelin-reactive T cells; subject 1042, Day 19): 0.8; Viable Cell Count, Count/well (myelin-reactive T cells; subject 1042, Day 19): 1.97E+06; Viable Cell Count, Total Cells (myelin-reactive T cells; subject 1042, Day 19): 2.36E+07; Fold Expansion (myelin-reactive T cells; subject 1042, Day 26): 1.2; Viable Cell Count, Count/well (myelin-reactive T cells; subject 1042, Day 26): 1.50E+06; Viable Cell Count, Total Cells (myelin-reactive T cells; subject 1042, Day 26): 3.60E+07; Fold Expansion (myelin-reactive T cells; subject 1042, Day 33): 3.0; Viable Cell Count, Count/well (myelin-reactive T cells; subject 1042, Day 33): 3.76E+06; Viable Cell Count, Total Cells (myelin-reactive T cells; subject 1042, Day 33): 9.02E+07; Fold Expansion (myelin-reactive T cells; subject 1042, Day 35): 3.0; Viable Cell Count, Count/well (myelin-reactive T cells; subject 1042, Day 35): 3.74E+06; Viable Cell Count, Total Cells (myelin-reactive T cells; subject 1042, Day 35): 8.98E+07
PLPm11: mix of PLP 21 and PLP 22 (chain 1 LYGALLLAEGFYTTGA; chain 2 LLLAEGFYTTGAVRQI)	4	3.4%	–
PLPm12: mix of PLP 23 and PLP 24 (chain 1 EGFYTTGAVRQIFGDY; chain 2 TTGAVRQIFGDYKTTI)	1	0.8%	–
MOGm26: mix of MOG 51 and MOG 52 (chain 1 WLHRRLAGQFLEELRN; chain 2 RLAGQFLEELRNPF)	9	7.6%	–
MOGm6: mix of MOG 11 and MOG 12 (chain 1 RPPFSRVVHLYRNGKD; chain 2 SRVVHLYRNGKDQDGD)	4	3.4%	Fold Expansion (myelin-reactive T cells; subject 1014, Day 0): 1.3; Viable Cell Count, Count/well (myelin-reactive T cells; subject 1014, Day 0): 2.50E+06; Viable Cell Count, Total Cells (myelin-reactive T cells; subject 1014, Day 0): 3.00E+07; Fold Expansion (myelin-reactive T cells; subject 1014, Day 17): 0.7; Viable Cell Count, Count/well (myelin-reactive T cells; subject 1014, Day 17): 2.18E+06; Viable Cell Count, Total Cells (myelin-reactive T cells; subject 1014, Day 17): 1.96E+07; Fold Expansion (myelin-reactive T cells; subject 1014, Day 19): 1.3; Viable Cell Count, Count/well (myelin-reactive T cells; subject 1014, Day 19): 4.27E+06; Viable Cell Count, Total Cells (myelin-reactive T cells; subject 1014, Day 19): 3.84E+07; Fold Expansion (myelin-reactive T cells; subject 1014, Day 28): 4.1; Viable Cell Count, Count/well (myelin-reactive T cells; subject 1014, Day 28): 4.35E+06; Viable Cell Count, Total Cells (myelin-reactive T cells; subject 1014, Day 28): 1.22E+08; Fold Expansion (myelin-reactive T cells; subject 1014, Day 33): 4.4; Viable Cell Count, Count/well (myelin-reactive T cells; subject 1014, Day 33): 4.71E+06; Viable Cell Count, Total Cells (myelin-reactive T cells; subject 1014, Day 33): 1.32E+08; Fold Expansion (myelin-reactive T cells; subject 1014, Day 35): 3.7; Viable Cell Count, Count/well (myelin-reactive T cells; subject 1014, Day 35): 3.93E+06; Viable Cell Count, Total Cells (myelin-reactive T cells; subject 1014, Day 35): 1.10E+08
PLPm22: mix of PLP 43 and PLP 44 (chain 1 CSAVPVYIYFNTWTTC; chain 2 PVYIYFNTWTTCQSIA)	2	1.7%	–
MOGm4: mix of MOG 7 and MOG 8 (chain 1 RISPGKNATGMEVGWY; chain 2 GKNATXMEVGWYRPPF; X not resolved here; also: mixture of MOG 7 and MOG 8)	3	2.5%	–
MOGm2: mix of MOG 3 and MOG 4 (chain 1 RHPIRALVGDEVELPC; chain 2 RALVGDEVELPCRISP)	6	5.0%	–
MOGm19: mix of MOG 37 and MOG 38 (chain 1 VFLCLQYRLRGKLRAE; chain 2 LQYRLRGKLRAEIENL)	6	5.0%	–
MOGm24: mix of MOG 47 and MOG 48 (chain 1 IVPVLGPLVALIICYN; chain 2 LGPLVALIICYNWLHR)	15	12.6%	–
MOGm20: mix of MOG 39 and MOG 40 (chain 1 LRGKLRAEIENLHRTF; chain 2 LRAEIENLHRTFDPHF)	1	0.8%	–
MOGm23: mix of MOG 45 and MOG 46 (chain 1 CWKITLFVIVPVLGPL; chain 2 TLFVIVPVLGPLVALI)	20	16.8%	–
PLPm19: mix of PLP 37 and PLP 38 (chain 1 WLGHPDKFVGITYALT; chain 2 PDKFVGITYALTVVWL)	11	9.2%	–
